Target: FABP4 (Homo sapiens, UniProt P15090)
Experiment: TdF (Temperature Dependence Fluorescence) assay, thermal shift, FABP4
Type: binding
Source text: TdF (Temperature Dependence Fluorescence) Assay for FABP3 and FABP4
The TdF assay was mainly conducted in the 96-well based CHROMO-4 real time fluorescence plate reader (BioRad). The Sypro Orange (Sigma-Aldrich), environmentally sensitive fluorescence dye, was used to monitor the protein folding-unfolding transition. Protein-ligand binding was gauged by the change (or shift) in the unfolding transition temperature (ΔTm) acquired at protein alone with respect to protein in the presence of ligand of interest.
The compound of interest was first prepared in DMSO stock (typical concentration: 10 mM). […] Final percentage of DMSO resided in the sample was 2%. The sample plate was heated from 30° C. to 90° C. with thermal ramping rate of 1° C./min. The fluorescence signals were acquired with excitation and emission wavelengths centered at 490 and 560 nm respectively. The instrument thermal stability was ±0.2° C.
Theoretical basis for TdF-based ligand binding affinity constant
In brief, the binding constant of the ligand at the Tm is expressed as below:
[formula] where To is the midpoint of unfolding for unliganded protein and Tm is the midpoint of unfolding in presence of ligand. [LTm] is free ligand at Tm. The ΔHu and ΔCpu are the enthalpy of unfolding and heat capacity change of unfolding for the protein respectively.
The nonlinear regression fitting in general readily reaches convergence by properly constraining the initial values for the fitting parameters (e.g. the initial “guess” for the ΔHu was constrained to 120 kcal/mol; initial Yn and mn were set to 1 and zero to best represent the melting curve along the low temperature region; negative slope of −0.5 was initially chosen for mu; initial Tm was also constrained to 50° C.).
[formula] (see Brandts et al and Mayhood et al, shown above) where ΔHL (T) is the van't Hoff enthalpy of ligand binding at temperature T and ΔCpL is the heat capacity upon ligand binding. For simplicity, the ΔCpL and ΔHL (T) were set to zero and −7 kcal/mol respectively. […] TdCD (Temperature-dependent Circular Dichroism) Assay for FABP3/4/5

FABP4, sequence (P15090 whole entry, species assumed): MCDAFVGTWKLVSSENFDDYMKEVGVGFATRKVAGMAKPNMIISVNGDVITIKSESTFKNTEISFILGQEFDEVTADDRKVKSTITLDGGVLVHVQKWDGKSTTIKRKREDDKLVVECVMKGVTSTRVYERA

| Kd [nM] | FABP4 TdF Kd | SMILES |
| --- | --- | --- |
| – | B (0.5 ≦ B < 0.001 μM) | Cc1c(Cl)cccc1OCc1cc(=O)n2nc(-c3ccccn3)nc2[nH]1 [25-3] |
| – | B (0.5 ≦ B < 0.001 μM) | Cc1c(Cl)cccc1OCc1cc(=O)n2nc(-c3ccsc3)nc2[nH]1 [25-4] |
| > 500 | – | Cc1c(Cl)cccc1OCc1cc(=O)n2nc(-c3cnccn3)nc2[nH]1 [25-5] |
| > 500 | – | Cc1c(Cl)cccc1OCc1cc(=O)n2nc(-c3cncnc3)nc2[nH]1 [25-6] |
| > 500 | – | Cc1c(Cl)cccc1OCc1cc(=O)n2nc(-c3ccccc3Cl)nc2[nH]1 [25-7] |
| > 500 | – | Cc1c(Cl)cccc1OCc1cc(=O)n2nc(-c3ccccc3F)nc2[nH]1 [25-8] |
| – | B (0.5 ≦ B < 0.001 μM) | O=c1c(Cl)c(COc2cccc(Cl)c2C2CCC2)[nH]c2nc(-c3ccccc3)nn12 [26-4] |
| > 500 | – | Cc1c(Cl)cccc1OCc1cc(=O)n2nc(-c3ccccc3)nc2n1C [28-1] |
| > 500 | – | O=c1cc(CN2CCc3c(C4CC4)cccc32)[nH]c2nc(-c3ccccc3)nn12 [29-1] |
| – | B (0.5 ≦ B < 0.001 μM) | O=c1cc(COc2cccc(Cl)c2CO)[nH]c2nc(-c3ccccc3)nn12 [30-2] |
| – | B (0.5 ≦ B < 0.001 μM) | CC(=O)c1c(Cl)cccc1OCc1cc(=O)n2nc(-c3ccccc3)nc2[nH]1 [31-2] |
| > 500 | – | CN(C)Cc1c(Cl)cccc1OCc1cc(=O)n2nc(-c3ccccc3)nc2[nH]1 [33-1] |
| > 500 | – | O=c1cc(COc2cccc(Cl)c2CNCCN2CCOCC2)[nH]c2nc(-c3ccccc3)nn12 [33-2] |
| > 500 | – | CN1CCN(CCNCc2c(Cl)cccc2OCc2cc(=O)n3nc(-c4ccccc4)nc3[nH]2)CC1 [33-3] |
| – | B (0.5 ≦ B < 0.001 μM) | Cc1ccccc1C(C)Cc1cc(=O)n2nc(-c3ccccc3)nc2[nH]1 (stereo not shown) [35-5] |
| – | B (0.5 ≦ B < 0.001 μM) | Cc1c(Cl)cccc1OCc1[nH]c2nc(-c3ccccc3)nn2c(=O)c1F [36-1] |

| Kd [nM] | FABP4 TdF Kd | SMILES |
| --- | --- | --- |
| – | B (0.5 ≦ B < 0.001 μM) | Cc1c(Cl)cccc1OC(C)c1cc(=O)n2nc(-c3ccccc3)nc2[nH]1 (stereo not shown) [37-5] |
| – | B (0.5 ≦ B < 0.001 μM) | CC1(C)CN(Cc2cc(=O)n3nc(-c4ccccc4)nc3[nH]2)c2cccc(Br)c21 [39-5] |
| – | B (0.5 ≦ B < 0.001 μM) | CCCCC1(C)CN(Cc2cc(=O)n3nc(-c4ccccc4)nc3[nH]2)c2cccc(Cl)c21 (stereo not shown) [41-3] |
| – | B (0.5 ≦ B < 0.001 μM) | C=CCc1c(Cl)cccc1OCc1cc(=O)n2nc(-c3ccccc3)nc2[nH]1 [42-3] |
| – | B (0.5 ≦ B < 0.001 μM) | C=CCc1ccc(Cl)cc1OCc1cc(=O)n2nc(-c3ccccc3)nc2[nH]1 [42-4] |
| – | B (0.5 ≦ B < 0.001 μM) | O=c1cc(COc2cccc(Cl)c2CC2CC2)[nH]c2nc(-c3ccccc3)nn12 [43-2] |
| – | B (0.5 ≦ B < 0.001 μM) | O=c1cc(COc2cc(Cl)ccc2CC2CC2)[nH]c2nc(-c3ccccc3)nn12 [43-3] |
| – | B (0.5 ≦ B < 0.001 μM) | N#Cc1cccc(OCc2cc(=O)n3nc(-c4ccccc4)nc3[nH]2)c1Cl [45-2] |
| – | B (0.5 ≦ B < 0.001 μM) | N#Cc1cccc(OCc2cc(=O)n3nc(-c4ccccc4)nc3[nH]2)c1C1CC1 [46-2] |
| > 500 | – | NCc1cccc(OCc2cc(=O)n3nc(-c4ccccc4)nc3[nH]2)c1C1CC1 [46-3] |
| – | B (0.5 ≦ B < 0.001 μM) | O=C(O)c1c(Cl)cccc1OCc1cc(=O)n2nc(-c3ccccc3)nc2[nH]1 [47-1, 2-chloro-6-((7-oxo-2-phenyl-4,7-dihydro-[1,2,4]triazolo[1,5-a]pyrimidin-5-yl)methoxy)benzoic acid] |
| – | B (0.5 ≦ B < 0.001 μM) | Cn1nccc1NC(=O)c1c(Cl)cccc1OCc1cc(=O)n2nc(-c3ccccc3)nc2[nH]1 [47-2, 2-chloro-N-(1-methyl-1H-pyrazol-5-yl)-6-((7-oxo-2-phenyl-4,7-dihydro-[1,2,4]triazolo[1,5-a]pyrimidin-5-yl)methoxy)benzamide] |
| – | B (0.5 ≦ B < 0.001 μM) | O=C(NCC1CC1)c1c(Cl)cccc1OCc1cc(=O)n2nc(-c3ccccc3)nc2[nH]1 [47-3] |
| ≤ 1 | – | O=C(NCC1(c2ccc(Cl)cc2)CC1)c1c(Cl)cccc1OCc1cc(=O)n2nc(-c3ccccc3)nc2[nH]1 [47-4, 2-chloro-N-((1-(4-chlorophenyl)cyclopropyl)methyl)-6-((7-oxo-2-phenyl-4,7-dihydro-[1,2,4]triazolo[1,5-a]pyrimidin-5-yl)methoxy)benzamide] |
| – | B (0.5 ≦ B < 0.001 μM) | O=C(NCC1CCC1)c1c(Cl)cccc1OCc1cc(=O)n2nc(-c3ccccc3)nc2[nH]1 [47-5, 2-chloro-N-(cyclobutylmethyl)-6-((7-oxo-2-phenyl-4,7-dihydro-[1,2,4]triazolo[1,5-a]pyrimidin-5-yl)methoxy)benzamide] |

The next lines start with the compound.

| SMILES | Kd [nM] | FABP4 TdF Kd |
| --- | --- | --- |
| Cc1c(Cl)cccc1NCc1cc(=O)n2nc(-c3ccccc3)cc2[nH]1 [10-2] | > 500 | – |
| Cc1c(Cl)cccc1NC(=O)c1cc(=O)n2nc(-c3ccccc3)nc2[nH]1 [11-3] | > 500 | – |
| Cc1c(Cl)cccc1N(C)C(=O)c1cc(=O)n2nc(-c3ccccc3)nc2[nH]1 [11-4] | > 500 | – |
| CCc1ccc(SCc2cc(=O)n3nc(-c4ccccc4)nc3[nH]2)cc1 [12-1] | – | B (0.5 ≦ B < 0.001 μM) |
| CCc1ccc(S(=O)(=O)Cc2cc(=O)n3nc(-c4ccccc4)nc3[nH]2)cc1 [12-2] | > 500 | – |
| Cc1c(Cl)cccc1NCc1[nH]c2ncnn2c(=O)c1Cl [13-2] | > 500 | – |
| CCc1ccc(CCc2cc(=O)n3nc(-c4ccccc4)nc3[nH]2)cc1 [14-3] | > 500 | – |
| CCc1ccc(OCc2[nH]c3nc(-c4ccccc4)nn3c(=O)c2C)cc1 [15-3] | > 500 | – |
| Cc1c(Cl)cccc1SCc1cc(=O)n2nc(-c3ccccc3)nc2[nH]1 [16-2] | – | B (0.5 ≦ B < 0.001 μM) |
| Cc1c(Cl)cccc1N(Cc1cc(=O)n2nc(-c3ccccc3)nc2[nH]1)C1CC1 [17-2] | > 500 | – |
| O=c1cc(CN(c2cccc(Cl)c2)C2CC2)[nH]c2nc(-c3ccccc3)nn12 [17-3] | – | B (0.5 ≦ B < 0.001 μM) |
| CN(Cc1cc(=O)n2nc(-c3ccccc3)nc2[nH]1)c1cccc(Cl)c1C1CC1 [18-3] | – | B (0.5 ≦ B < 0.001 μM) |
| CNc1cccc(N(C)Cc2cc(=O)n3nc(-c4ccccc4)nc3[nH]2)c1C1CC1 [19-2] | – | B (0.5 ≦ B < 0.001 μM) |
| CCc1c(Cl)cccc1OCc1cc(=O)n2nc(-c3ccccc3)nc2[nH]1 [21-3] | – | B (0.5 ≦ B < 0.001 μM) |
| COCc1c(Cl)cccc1OCc1cc(=O)n2nc(-c3ccccc3)nc2[nH]1 [22-2] | – | B (0.5 ≦ B < 0.001 μM) |
| O=c1c(Br)c(COc2cccc(Cl)c2C2CC2)[nH]c2nc(-c3ccccc3)nn12 [23-1] | – | B (0.5 ≦ B < 0.001 μM) |
| CC1(C)CCCC(OCc2[nH]c3nc(-c4ccccc4)nn3c(=O)c2Cl)C1 (stereo not shown) [24-2] | – | B (0.5 ≦ B < 0.001 μM) |

| SMILES | Kd [nM] | FABP4 TdF Kd |
| --- | --- | --- |
| O=c1c(Cl)c(COc2csc(C(F)(F)F)c2)[nH]c2nc(-c3ccccc3)nn12 [24-3] | – | B (0.5 ≦ B < 0.001 μM) |
| O=c1c(Cl)c(CN2CCOc3c(Br)cccc32)[nH]c2nc(-c3ccccc3)nn12 [24-4] | – | B (0.5 ≦ B < 0.001 μM) |
| O=c1c(Cl)c(CN2CCCC2Cc2cccc(Cl)c2)[nH]c2nc(-c3ccccc3)nn12 (stereo not shown) [24-5] | > 500 | – |
| O=c1c(Cl)c(CN2CCCC2Cc2ccncn2)[nH]c2nc(-c3ccccc3)nn12 (stereo not shown) [24-6] | > 500 | – |
| O=c1c(Cl)c(COCC2(c3cccc(C(F)(F)F)c3)CC2)[nH]c2nc(-c3ccccc3)nn12 [24-7] | – | B (0.5 ≦ B < 0.001 μM) |
| O=C(NCC1(c2ccccc2Cl)CC1)c1ccccc1OCc1[nH]c2nc(-c3ccccc3)nn2c(=O)c1Cl [24-8] | – | B (0.5 ≦ B < 0.001 μM) |
| O=C(NCC1(CO)CCCC1)c1ccccc1OCc1[nH]c2nc(-c3ccccc3)nn2c(=O)c1Cl [24-9] | – | B (0.5 ≦ B < 0.001 μM) |
| O=C(NCC1(CO)CCC1)c1ccccc1OCc1[nH]c2nc(-c3ccccc3)nn2c(=O)c1Cl [24-10] | > 500 | – |
| CC1(NC(=O)c2ccccc2OCc2[nH]c3nc(-c4ccccc4)nn3c(=O)c2Cl)COC1 [24-11] | > 500 | – |
| CN(C(=O)c1ccccc1OCc1[nH]c2nc(-c3ccccc3)nn2c(=O)c1Cl)C1CCCCC1 [24-12] | – | B (0.5 ≦ B < 0.001 μM) |
| O=C(NC1CCCCC1)c1ccccc1OCc1[nH]c2nc(-c3ccccc3)nn2c(=O)c1Cl [24-13] | – | B (0.5 ≦ B < 0.001 μM) |
| O=C(NCCC1CC1)c1ccccc1OCc1[nH]c2nc(-c3ccccc3)nn2c(=O)c1Cl [24-14] | – | B (0.5 ≦ B < 0.001 μM) |
| O=C(NCC1CC1)c1ccccc1OCc1[nH]c2nc(-c3ccccc3)nn2c(=O)c1Cl [24-15] | – | B (0.5 ≦ B < 0.001 μM) |
| O=C(NCC1(CO)CC1)c1ccccc1OCc1[nH]c2nc(-c3ccccc3)nn2c(=O)c1Cl [24-16] | – | B (0.5 ≦ B < 0.001 μM) |
| COCC1(CNC(=O)c2ccccc2OCc2[nH]c3nc(-c4ccccc4)nn3c(=O)c2Cl)CC1 [24-17] | – | B (0.5 ≦ B < 0.001 μM) |
| COc1ccccc1C1(CNC(=O)c2ccccc2OCc2[nH]c3nc(-c4ccccc4)nn3c(=O)c2Cl)CC1 [24-18] | ≤ 1 | – |

— patent publication US8815875B2 (Merck Sharp & Dohme Corp., priority 2008, dated 2014)
